Results from PubChem BioAssay (NCI).
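Following 48 hours of exposure in 96-well plates, responses at five concentrations were used to interpolate endpoints linearly. Definition used: TGI = concentration required for complete inhibition of growth.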 Where a SMILES comes first, the peptide text is derived from it. [ ]: non-standard residue; d: D form. The star is where a group is joined. ξ: configuration not given here. ξHyp = O=C(O)C1CC(O)CN1; Cbz = O=C(OCc1ccccc1)*

How the values were obtained:
Test in all cases: NCI-60 cell line screen, 48 h
[1] = system: A498 renal
[2] = system: A549 NSCLC
[3] = system: BT-549 breast
[4] = system: CAKI-1 renal
[5] = system: COLO 205 colon
[6] = system: DU-145 prostate
[7] = system: EKVX NSCLC
[8] = system: HCC-2998 colon
[9] = system: HCT-116 colon
[10] = system: HCT-15 colon
[11] = system: HL-60(TB) leukemia
[12] = system: HOP-62 NSCLC
[13] = system: HOP-92 NSCLC
[14] = system: HS 578T breast
[15] = system: HT29 colon
[16] = system: IGROV1 ovarian
[17] = system: K-562 leukemia
[18] = system: LOX IMVI melanoma
[19] = system: M14 melanoma
[20] = system: MALME-3M melanoma
[21] = system: MCF7 breast
[22] = system: MDA-MB-231 breast
[23] = system: MDA-MB-435
[24] = system: MDA-N
[25] = system: NCI-H226 lung
[26] = system: NCI-H23 lung
[27] = system: NCI-H460 lung
[28] = system: NCI/ADR-RES ovarian
[29] = system: OVCAR-3 ovarian
[30] = system: OVCAR-4 ovarian
[31] = system: OVCAR-5 ovarian
[32] = system: OVCAR-8 ovarian
[33] = system: PC-3 prostate
[34] = system: RXF 393 renal
[35] = system: SF-268 CNS
[36] = system: SF-295 CNS
[37] = system: SF-539 CNS
[38] = system: SK-MEL-2 melanoma
[39] = system: SK-MEL-5 melanoma
[40] = system: SK-OV-3 ovarian
[41] = system: SN12C renal
[42] = system: SNB-75 CNS
[43] = system: SR leukemia
[44] = system: SW-620 colon
[45] = system: T-47D breast
[46] = system: TK-10 renal
[47] = system: U251 CNS
[48] = system: UACC-257 melanoma
[49] = system: UACC-62 melanoma
[50] = system: UO-31 renal
[51] = system: 786-0 renal
[52] = system: ACHN renal
[53] = system: CCRF-CEM leukemia
[54] = system: KM12 colon
[55] = system: MOLT-4 leukemia
[56] = system: NCI-H522 lung
[57] = system: RPMI-8226 leukemia
[58] = system: SK-MEL-28 melanoma
[59] = system: SNB-19 CNS

O=C1CC2(CCC(O)(c3ccco3)C(C(=O)c3ccco3)C2)C(=O)c2ccccc2N1 (stereo not drawn)
TGI [1]: > 100 µM
TGI [2]: > 100 µM
TGI [3]: > 100 µM
TGI [4]: > 100 µM
TGI [5]: > 100 µM
TGI [6]: > 100 µM
TGI [7]: > 100 µM
TGI [8]: > 100 µM
TGI [9]: > 100 µM
TGI [10]: > 100 µM
TGI [11]: > 100 µM
TGI [12]: > 100 µM
TGI [13]: > 100 µM
TGI [14]: > 100 µM
TGI [15]: > 100 µM
TGI [16]: > 100 µM
TGI [17]: > 100 µM
TGI [18]: > 100 µM
TGI [19]: > 100 µM
TGI [20]: > 100 µM
TGI [21]: > 100 µM
TGI [22]: > 100 µM
TGI [23]: > 100 µM
TGI [24]: > 100 µM
TGI [25]: > 100 µM
TGI [26]: > 100 µM
TGI [27]: > 100 µM
TGI [28]: > 100 µM
TGI [29]: > 100 µM
TGI [30]: 57 µM
TGI [31]: > 100 µM
TGI [32]: > 100 µM
TGI [33]: > 100 µM
TGI [34]: > 100 µM
TGI [35]: > 100 µM
TGI [36]: > 100 µM
TGI [37]: > 100 µM
TGI [38]: > 100 µM
TGI [39]: > 100 µM
TGI [40]: > 100 µM
TGI [41]: > 100 µM
TGI [42]: > 100 µM
TGI [43]: > 100 µM
TGI [44]: > 100 µM
TGI [45]: 81.7 µM
TGI [46]: > 100 µM
TGI [47]: > 100 µM
TGI [48]: > 100 µM
TGI [49]: > 100 µM
TGI [50]: > 100 µM

NC(=O)CNC(=O)C1CC(O)CN1C(=O)OCc1ccccc1 (stereo not drawn) (Cbz-[ξHyp]-Gly-NH2)
TGI [51]: > 100 µM
TGI [1]: > 100 µM
TGI [2]: > 100 µM
TGI [52]: > 100 µM
TGI [3]: > 100 µM
TGI [53]: > 100 µM
TGI [5]: > 100 µM
TGI [6]: > 100 µM
TGI [7]: > 100 µM
TGI [8]: > 100 µM
TGI [9]: > 100 µM
TGI [10]: > 100 µM
TGI [11]: > 100 µM
TGI [12]: > 100 µM
TGI [14]: > 100 µM
TGI [15]: > 100 µM
TGI [16]: > 100 µM
TGI [17]: > 100 µM
TGI [54]: > 100 µM
TGI [18]: > 100 µM
TGI [19]: > 100 µM
TGI [20]: > 100 µM
TGI [21]: > 100 µM
TGI [22]: > 100 µM
TGI [23]: > 100 µM
TGI [24]: > 100 µM
TGI [55]: > 100 µM
TGI [25]: > 100 µM
TGI [26]: > 100 µM
TGI [27]: > 100 µM
TGI [56]: > 100 µM
TGI [28]: > 100 µM
TGI [29]: > 100 µM
TGI [30]: > 100 µM
TGI [31]: > 100 µM
TGI [32]: > 100 µM
TGI [33]: > 100 µM
TGI [57]: > 100 µM
TGI [34]: > 100 µM
TGI [35]: > 100 µM
TGI [36]: > 100 µM
TGI [38]: > 100 µM
TGI [58]: > 100 µM
TGI [39]: > 100 µM
TGI [40]: > 100 µM
TGI [41]: > 100 µM
TGI [59]: > 100 µM
TGI [42]: > 100 µM
TGI [43]: > 100 µM
TGI [44]: > 100 µM
TGI [45]: > 100 µM
TGI [46]: > 100 µM
TGI [47]: > 100 µM
TGI [48]: > 100 µM
TGI [49]: > 100 µM
TGI [50]: > 100 µM

CN(C)CCn1c(=O)nc2c3c(c([N+](=O)[O-])ccc31)Nc1ccc(O)cc1-2
TGI [51]: 6.52 µM
TGI [1]: 23.4 µM
TGI [2]: 27.8 µM
TGI [52]: 17.4 µM
TGI [3]: 37 µM
TGI [4]: > 45.7 µM
TGI [5]: 14.5 µM
TGI [6]: > 47.5 µM
TGI [7]: > 63.6 µM
TGI [8]: 13.1 µM
TGI [9]: 8.37 µM
TGI [10]: > 100 µM
TGI [12]: 16.6 µM
TGI [13]: 16.2 µM
TGI [14]: 22.4 µM
TGI [15]: 15.3 µM
TGI [16]: 12.3 µM
TGI [17]: > 25.7 µM
TGI [54]: > 27.5 µM
TGI [18]: 3.15 µM
TGI [19]: > 49.3 µM
TGI [20]: 18 µM
TGI [21]: 5.68 µM
TGI [22]: 10.2 µM
TGI [23]: 46.6 µM
TGI [24]: 23.7 µM
TGI [55]: 3.6 µM
TGI [25]: 20.8 µM
TGI [26]: 33.4 µM
TGI [27]: 15.6 µM
TGI [56]: 6.13 µM
TGI [28]: > 100 µM
TGI [29]: 15.3 µM
TGI [30]: > 42.7 µM
TGI [31]: > 81.2 µM
TGI [32]: 11.4 µM
TGI [33]: > 46.9 µM
TGI [57]: 26.6 µM
TGI [34]: 10.5 µM
TGI [35]: 17.1 µM
TGI [36]: 24.8 µM
TGI [37]: 8.36 µM
TGI [38]: 33.6 µM
TGI [58]: 32.7 µM
TGI [39]: 20.1 µM
TGI [40]: 35.1 µM
TGI [41]: 17.1 µM
TGI [59]: 16.8 µM
TGI [42]: 21.2 µM
TGI [43]: 8.92 µM
TGI [44]: > 42.6 µM
TGI [45]: 6.48 µM
TGI [46]: 36 µM
TGI [47]: 6.26 µM
TGI [48]: > 54.9 µM
TGI [49]: 23.2 µM
TGI [50]: 28.7 µM
